Data reported in US11123337B2, “4-methylsulfonyl-substituted piperidine urea compounds” (MYOKARDIA, INC., priority 2015, dated 2021).

molecular target: bovine cardiac myosin (Bos taurus, UniProt Q9BE39); experiment: Myosin activation assay (PK/LDH-coupled ATPase, bovine cardiac myofibrils); type: biochemical; conditions: AC20 = concentration at which total response is increased by twenty percent
Procedure, shortened: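 Skinned bovine cardiac myofibrils (1 mg/mL) in PIPES/MgCl2 buffer pH 6.8 at free Ca2+ giving ~50% (pCa ~6) or <5% (pCa 10) activation, with 50 μM ATP and 3.3% DMSO. ATPase rate from NADH absorbance at 340 nm (PK/LDH coupling) over 15 min at ambient temperature. AC20/AC50 from a four-parameter fit of DMSO-normalised rates.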

bovine cardiac myosin, sequence (Q9BE39 whole entry): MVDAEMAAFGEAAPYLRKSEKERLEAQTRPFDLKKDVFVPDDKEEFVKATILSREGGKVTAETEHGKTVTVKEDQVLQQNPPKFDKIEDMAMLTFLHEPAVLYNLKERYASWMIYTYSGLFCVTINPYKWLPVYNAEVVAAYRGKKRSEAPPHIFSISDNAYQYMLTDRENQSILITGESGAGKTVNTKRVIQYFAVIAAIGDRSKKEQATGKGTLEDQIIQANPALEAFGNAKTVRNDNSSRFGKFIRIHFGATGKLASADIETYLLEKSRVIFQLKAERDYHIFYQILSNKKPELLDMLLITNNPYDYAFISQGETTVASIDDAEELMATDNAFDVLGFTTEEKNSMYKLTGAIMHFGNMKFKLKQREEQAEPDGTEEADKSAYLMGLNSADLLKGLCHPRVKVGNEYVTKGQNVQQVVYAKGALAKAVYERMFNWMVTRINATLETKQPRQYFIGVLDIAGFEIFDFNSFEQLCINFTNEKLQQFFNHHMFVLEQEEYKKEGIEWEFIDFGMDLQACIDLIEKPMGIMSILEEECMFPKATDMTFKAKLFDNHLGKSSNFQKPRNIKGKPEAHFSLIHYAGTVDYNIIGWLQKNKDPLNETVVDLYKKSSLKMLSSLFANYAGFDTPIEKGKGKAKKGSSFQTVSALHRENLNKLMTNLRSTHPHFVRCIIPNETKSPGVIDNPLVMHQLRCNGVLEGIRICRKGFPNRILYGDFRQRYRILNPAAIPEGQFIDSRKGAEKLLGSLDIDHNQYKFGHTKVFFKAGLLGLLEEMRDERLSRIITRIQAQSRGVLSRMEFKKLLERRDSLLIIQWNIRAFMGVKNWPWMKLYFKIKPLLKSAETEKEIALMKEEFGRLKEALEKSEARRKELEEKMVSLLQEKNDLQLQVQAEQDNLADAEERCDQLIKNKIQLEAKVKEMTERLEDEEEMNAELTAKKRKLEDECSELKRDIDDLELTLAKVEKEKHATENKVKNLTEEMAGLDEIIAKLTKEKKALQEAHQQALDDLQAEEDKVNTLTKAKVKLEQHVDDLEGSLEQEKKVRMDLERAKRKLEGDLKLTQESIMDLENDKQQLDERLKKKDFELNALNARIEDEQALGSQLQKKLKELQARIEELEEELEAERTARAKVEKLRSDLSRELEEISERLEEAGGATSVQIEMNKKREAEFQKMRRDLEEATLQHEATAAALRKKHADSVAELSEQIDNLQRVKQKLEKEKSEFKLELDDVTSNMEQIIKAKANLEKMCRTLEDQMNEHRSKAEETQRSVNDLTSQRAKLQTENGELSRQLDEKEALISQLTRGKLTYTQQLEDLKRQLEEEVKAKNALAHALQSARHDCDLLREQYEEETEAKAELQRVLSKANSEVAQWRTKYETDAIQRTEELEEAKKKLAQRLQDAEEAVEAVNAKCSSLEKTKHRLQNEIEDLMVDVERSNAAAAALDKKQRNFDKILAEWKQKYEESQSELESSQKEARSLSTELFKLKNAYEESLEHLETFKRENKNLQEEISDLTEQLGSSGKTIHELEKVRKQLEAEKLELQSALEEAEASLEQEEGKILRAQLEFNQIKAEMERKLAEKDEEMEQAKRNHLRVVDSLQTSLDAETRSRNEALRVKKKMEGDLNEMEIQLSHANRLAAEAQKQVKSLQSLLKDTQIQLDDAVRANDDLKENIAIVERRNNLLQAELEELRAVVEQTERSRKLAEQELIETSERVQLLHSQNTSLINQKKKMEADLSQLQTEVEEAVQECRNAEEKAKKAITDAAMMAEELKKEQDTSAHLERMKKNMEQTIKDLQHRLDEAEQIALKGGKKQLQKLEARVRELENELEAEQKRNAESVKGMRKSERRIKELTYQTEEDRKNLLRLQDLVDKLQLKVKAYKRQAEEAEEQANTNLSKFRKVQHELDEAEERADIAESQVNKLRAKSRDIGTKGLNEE
bovine cardiac myosin, sequence (P85100 whole entry partner): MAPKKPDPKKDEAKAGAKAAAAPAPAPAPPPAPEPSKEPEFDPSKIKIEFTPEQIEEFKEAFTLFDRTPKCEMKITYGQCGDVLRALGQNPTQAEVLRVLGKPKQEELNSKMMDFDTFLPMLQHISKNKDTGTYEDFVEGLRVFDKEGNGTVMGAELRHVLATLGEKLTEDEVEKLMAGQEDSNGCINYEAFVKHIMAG
bovine cardiac myosin, sequence (Q3SZE5 whole entry partner): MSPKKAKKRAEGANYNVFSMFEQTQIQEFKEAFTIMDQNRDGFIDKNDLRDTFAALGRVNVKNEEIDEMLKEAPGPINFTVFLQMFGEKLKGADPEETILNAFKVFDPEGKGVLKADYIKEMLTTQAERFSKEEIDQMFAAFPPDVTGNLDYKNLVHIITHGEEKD

Row | Compound | Myosin Activation (AC20)
1 | CC(F)(C1CCN(C(=O)Nc2ccnnc2)CC1)S(=O)(=O)c1cccc(C#N)c1 (centres unmarked) [Compound 265, 4-(1-((3-cyanophenyl)sulfonyl)-1-fluoroethyl)-N-(pyridazin-4-yl)piperidine-1-carboxamide] | +++ (+++ represents myosin activation value AC20 < 2 μM)
2 | Cn1nccc1S(=O)(=O)C(C)(F)C1CCN(C(=O)Nc2ccnnc2)CC1 (centres unmarked) [Compound 271, 4-(1-fluoro-1-((1-methyl-1H-pyrazol-5-yl)sulfonyl)ethyl)-N-(pyridazin-4-yl)piperidine-1-carboxamide] | ++ (++ represents myosin activation value AC20 from 2 μM-5 μM)
3 | CC(F)(C1CCN(C(=O)Nc2ccnnc2)CC1)S(=O)(=O)c1ccc(C(F)(F)F)cc1 (centres unmarked) [Compound 266, 4-(1-fluoro-1-((4-(trifluoromethyl)phenyl)sulfonyl)ethyl)-N-(pyridazin-4-yl)piperidine-1-carboxamide] | ++ (++ represents myosin activation value AC20 from 2 μM-5 μM)
4 | CC(C)(C1CCN(C(=O)Nc2ccncc2Cl)CC1)S(=O)(=O)c1cccc(F)c1 [Compound 176, N-(3-chloropyridin-4-yl)-4-(2-((3-fluorophenyl)sulfonyl)propan-2-yl)piperidine-1-carboxamide] | + (+ represents myosin activation value AC20 > 5 μM)
5 | O=C(Nc1ccns1)N1CCC(C2(S(=O)(=O)c3cccc(F)c3)CC2)CC1 [Compound 217, 4-(1-((3-fluorophenyl)sulfonyl)cyclopropyl)-N-(isothiazol-5-yl)piperidine-1-carboxamide] | +++ (+++ represents myosin activation value AC20 < 2 μM)
6 | O=C(Nc1ccnnc1)N1CCC(C(F)(F)S(=O)(=O)c2ccc3ccnn3c2)CC1 [Compound 91, 4-(difluoro(pyrazolo[1,5-a]pyridin-6-ylsulfonyl)methyl)-N-(pyridazin-4-yl)piperidine-1-carboxamide] | ++ (++ represents myosin activation value AC20 from 2 μM-5 μM)
7 | COc1ccc(Cl)c(S(=O)(=O)C(F)(F)C2CCN(C(=O)Nc3ccnnc3)CC2)c1 [Compound 72, 4-(((2-chloro-5-methoxyphenyl)sulfonyl)difluoromethyl)-N-(pyridazin-4-yl)piperidine-1-carboxamide] | +++ (+++ represents myosin activation value AC20 < 2 μM)
8 | C[C@](F)(C1CCN(C(=O)Nc2ccc(CO)nc2)CC1)S(=O)(=O)c1cccc(F)c1 [Compound 286, (R)-4-(1-fluoro-1-((3-fluorophenyl)sulfonyl)ethyl)-N-(6-(hydroxymethyl)pyridin-3-yl)piperidine-1-carboxamide] | + (+ represents myosin activation value AC20 > 5 μM)
9 | Cc1ccc(NC(=O)N2CCC(C(C)(F)S(=O)(=O)c3cc(C(F)(F)F)nn3C)CC2)cn1 (centres unmarked) [Compound 250, 4-(1-fluoro-1-((1-methyl-3-(trifluoromethyl)-1H-pyrazol-5-yl)sulfonyl)ethyl)-N-(6-methylpyridin-3-yl)piperidine-1-carboxamide] | ++ (++ represents myosin activation value AC20 from 2 μM-5 μM)
10 | CC(F)(C1CCN(C(=O)Nc2ccnc(F)c2)CC1)S(=O)(=O)c1ccc(C(F)(F)F)cc1 (centres unmarked) [Compound 243, 4-(1-fluoro-1-((4-(trifluoromethyl)phenyl)sulfonyl)ethyl)-N-(2-fluoropyridin-4-yl)piperidine-1-carboxamide] | ++ (++ represents myosin activation value AC20 from 2 μM-5 μM)
11 | O=C(Nc1ccnnc1)N1CCC(CS(=O)(=O)c2cccc(F)c2)CC1 [Compound 34, 4-(((3-fluorophenyl)sulfonyl)methyl)-N-(pyridazin-4-yl)piperidine-1-carboxamide] | + (+ represents myosin activation value AC20 > 5 μM)
